{
  "source": "patent US20230263777A1",
  "about": "“STABLE SOLID FORMULATION OF AZILSARTAN OR PHARMACEUTICALLY ACCEPTABLE SALTS THEREOF” (PIRAMAL PHARMA LIMITED, priority 2020, published 2023)",
  "origin": "cited, not measured here",
  "data": [
    {"smiles": "CCOc1nc2cccc(C(=O)OCc3oc(=O)oc3C)c2n1Cc1ccc(-c2ccccc2-c2noc(=O)[nH]2)cc1", "note": "[Azilsartan kamedoxomil, (5-methyl-2-oxo-2H-1,3-dioxol-4-yl)methyl 2-ethoxy-1-({4-[2-(5-oxo-4,5-dihydro-1,2,4-oxadiazol-3-yl)phenyl]phenyl}methyl)-1H-1,3-benzodiazole-7-carboxylate]", "values": [
      {"measurement": "Solubility in methanol", "setting": "methanol", "result": "freely soluble"},
      {"measurement": "Solubility in water", "setting": "water", "result": "practically insoluble"}
    ]}
  ]
}
